Several values for one entry are separate records, joined by “and”; a condition that tells them apart may be missing. Equal entries are not always repeated. Each block holds one compound with its values, some of them ahead of it.
Columns and labels:
Assay in all cases: radiometric filter-binding kinase assay, Kinase HotSpot
Conditions in all cases: compound 0.5 µM; ATP 10 µM
MELK (human) = MELK (human) (UniProt Q14680)
SRC (human) = SRC (human) (UniProt P12931)
MUSK (human) = MUSK (human) (UniProt O15146)
NTRK3 (human) = NTRK3 (human) (UniProt Q16288)
CSK (human) = CSK (human) (UniProt P41240)
DSTYK (human) = DSTYK (human) (UniProt Q6XUX3)
HCK (human) = HCK (human) (UniProt P08631)
TSSK2 (human) = TSSK2 (human) (UniProt Q96PF2)
HIPK3 (human) = HIPK3 (human) (UniProt Q9H422)
RPS6KA2 KD1 KD2 (human) = RPS6KA2 KD1 KD2 (human) (UniProt Q15349)
LCK (human) = LCK (human) (UniProt P06239)
LCK (human), sequence (P06239 whole entry, looked up): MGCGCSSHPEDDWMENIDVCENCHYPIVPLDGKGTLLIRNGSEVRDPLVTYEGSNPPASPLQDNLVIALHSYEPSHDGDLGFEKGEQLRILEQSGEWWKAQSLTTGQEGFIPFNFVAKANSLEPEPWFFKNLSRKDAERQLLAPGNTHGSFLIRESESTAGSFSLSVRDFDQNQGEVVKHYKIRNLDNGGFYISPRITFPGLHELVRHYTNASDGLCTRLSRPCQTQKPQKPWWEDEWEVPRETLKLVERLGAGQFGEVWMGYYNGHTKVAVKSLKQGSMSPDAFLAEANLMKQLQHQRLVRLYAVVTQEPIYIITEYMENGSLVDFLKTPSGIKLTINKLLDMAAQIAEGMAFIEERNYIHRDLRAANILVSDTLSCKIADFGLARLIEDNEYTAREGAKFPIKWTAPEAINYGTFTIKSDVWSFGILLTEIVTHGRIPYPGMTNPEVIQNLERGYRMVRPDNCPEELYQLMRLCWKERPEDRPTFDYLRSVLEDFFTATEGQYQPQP

DYRK3 (human) = DYRK3 (human) (UniProt O43781)
DMPK (human) = DMPK (human) (UniProt Q09013)
TSSK1B (human) = TSSK1B (human) (UniProt Q9BXA7)
EPHA3 (human) = EPHA3 (human) (UniProt P29320)
ROCK1 (human) = ROCK1 (human) (UniProt Q13464)
BRSK2 (human) = BRSK2 (human) (UniProt Q8IWQ3)
BRSK2 (human), sequence (Q8IWQ3 whole entry, looked up): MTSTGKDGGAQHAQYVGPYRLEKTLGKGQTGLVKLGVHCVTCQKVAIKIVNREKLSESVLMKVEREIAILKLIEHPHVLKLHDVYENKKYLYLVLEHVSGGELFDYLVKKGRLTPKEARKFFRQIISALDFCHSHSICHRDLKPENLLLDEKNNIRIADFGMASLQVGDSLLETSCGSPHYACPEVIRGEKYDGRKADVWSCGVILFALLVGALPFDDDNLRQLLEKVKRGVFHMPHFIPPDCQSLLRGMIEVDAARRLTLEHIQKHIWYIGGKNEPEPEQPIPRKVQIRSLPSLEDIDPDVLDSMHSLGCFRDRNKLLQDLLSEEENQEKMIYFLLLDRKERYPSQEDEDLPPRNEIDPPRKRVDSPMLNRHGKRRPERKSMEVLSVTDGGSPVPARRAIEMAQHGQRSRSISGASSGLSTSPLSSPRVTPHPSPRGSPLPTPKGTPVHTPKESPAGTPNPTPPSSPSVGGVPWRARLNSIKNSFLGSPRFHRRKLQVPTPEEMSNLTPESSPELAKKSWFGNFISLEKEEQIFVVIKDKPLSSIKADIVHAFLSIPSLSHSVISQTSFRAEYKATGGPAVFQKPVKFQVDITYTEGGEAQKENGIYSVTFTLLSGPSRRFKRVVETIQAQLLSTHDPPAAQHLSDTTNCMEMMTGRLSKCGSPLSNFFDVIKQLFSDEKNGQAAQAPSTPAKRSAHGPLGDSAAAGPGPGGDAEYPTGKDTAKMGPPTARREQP

TBK1 (human) = TBK1 (human) (UniProt Q9UHD2)
MAPKAPK3 (human) = MAPKAPK3 (human) (UniProt Q16644)
PASK (human) = PASK (human) (UniProt Q96RG2)
PASK (human), sequence (Q96RG2 whole entry, looked up): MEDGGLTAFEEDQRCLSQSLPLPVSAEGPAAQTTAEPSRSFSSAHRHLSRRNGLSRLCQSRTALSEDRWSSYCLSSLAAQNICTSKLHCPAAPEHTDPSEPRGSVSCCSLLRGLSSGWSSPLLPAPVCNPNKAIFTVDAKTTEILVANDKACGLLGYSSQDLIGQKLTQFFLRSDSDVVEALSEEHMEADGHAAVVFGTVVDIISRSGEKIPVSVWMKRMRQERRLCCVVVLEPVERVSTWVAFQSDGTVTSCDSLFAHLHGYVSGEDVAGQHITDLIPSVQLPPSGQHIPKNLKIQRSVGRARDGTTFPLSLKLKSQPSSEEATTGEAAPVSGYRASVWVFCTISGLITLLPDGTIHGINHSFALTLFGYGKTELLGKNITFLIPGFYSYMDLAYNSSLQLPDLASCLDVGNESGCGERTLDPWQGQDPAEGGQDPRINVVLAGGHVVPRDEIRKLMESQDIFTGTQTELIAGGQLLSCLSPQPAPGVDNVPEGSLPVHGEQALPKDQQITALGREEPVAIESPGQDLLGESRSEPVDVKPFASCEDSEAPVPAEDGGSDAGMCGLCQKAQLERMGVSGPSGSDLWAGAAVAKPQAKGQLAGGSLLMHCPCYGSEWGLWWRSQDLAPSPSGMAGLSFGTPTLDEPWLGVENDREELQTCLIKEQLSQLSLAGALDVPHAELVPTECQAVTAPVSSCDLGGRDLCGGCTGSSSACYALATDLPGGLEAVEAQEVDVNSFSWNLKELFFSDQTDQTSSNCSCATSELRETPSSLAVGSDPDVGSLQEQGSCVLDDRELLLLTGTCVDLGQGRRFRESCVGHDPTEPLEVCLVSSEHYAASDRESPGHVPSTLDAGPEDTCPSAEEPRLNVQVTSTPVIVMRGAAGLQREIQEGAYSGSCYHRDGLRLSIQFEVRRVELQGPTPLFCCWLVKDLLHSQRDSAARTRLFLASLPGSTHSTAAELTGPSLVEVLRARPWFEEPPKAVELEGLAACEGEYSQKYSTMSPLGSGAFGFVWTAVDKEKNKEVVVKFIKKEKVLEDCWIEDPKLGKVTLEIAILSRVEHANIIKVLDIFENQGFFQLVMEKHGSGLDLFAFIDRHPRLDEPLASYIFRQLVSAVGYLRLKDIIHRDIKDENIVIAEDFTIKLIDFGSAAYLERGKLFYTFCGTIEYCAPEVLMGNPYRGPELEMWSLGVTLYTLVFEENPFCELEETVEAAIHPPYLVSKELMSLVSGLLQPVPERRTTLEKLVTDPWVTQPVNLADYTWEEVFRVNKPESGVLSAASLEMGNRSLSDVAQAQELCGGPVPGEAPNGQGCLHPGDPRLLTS

NEK3 (human) = NEK3 (human) (UniProt P51956)
NEK3 (human), sequence (P51956 whole entry, looked up): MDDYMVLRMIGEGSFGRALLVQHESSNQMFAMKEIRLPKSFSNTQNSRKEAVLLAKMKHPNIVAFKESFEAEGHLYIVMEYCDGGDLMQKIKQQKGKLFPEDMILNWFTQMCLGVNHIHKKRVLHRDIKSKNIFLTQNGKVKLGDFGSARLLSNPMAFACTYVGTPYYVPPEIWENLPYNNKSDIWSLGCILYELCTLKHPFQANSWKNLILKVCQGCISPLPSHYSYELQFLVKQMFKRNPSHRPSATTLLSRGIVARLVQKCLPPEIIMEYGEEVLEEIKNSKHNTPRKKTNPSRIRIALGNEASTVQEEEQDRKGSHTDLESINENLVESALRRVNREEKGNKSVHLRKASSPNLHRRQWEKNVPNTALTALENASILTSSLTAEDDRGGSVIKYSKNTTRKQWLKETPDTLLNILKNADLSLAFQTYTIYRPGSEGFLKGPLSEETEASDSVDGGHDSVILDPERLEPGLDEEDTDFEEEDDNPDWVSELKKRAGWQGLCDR

NEK7 (human) = NEK7 (human) (UniProt Q8TDX7)
PRKCB2 (human) = PRKCB2 (human) (UniProt P05771)
PLK2 (human) = PLK2 (human) (UniProt Q9NYY3)
PAK3 (human) = PAK3 (human) (UniProt O75914)
MINK1 (human) = MINK1 (human) (UniProt Q8N4C8)
IKBKE (human) = IKBKE (human) (UniProt Q14164)
INSR (human) = INSR (human) (UniProt P06213)
AKT2 (human) = AKT2 (human) (UniProt P31751)
AKT2 (human), sequence (P31751 whole entry, looked up): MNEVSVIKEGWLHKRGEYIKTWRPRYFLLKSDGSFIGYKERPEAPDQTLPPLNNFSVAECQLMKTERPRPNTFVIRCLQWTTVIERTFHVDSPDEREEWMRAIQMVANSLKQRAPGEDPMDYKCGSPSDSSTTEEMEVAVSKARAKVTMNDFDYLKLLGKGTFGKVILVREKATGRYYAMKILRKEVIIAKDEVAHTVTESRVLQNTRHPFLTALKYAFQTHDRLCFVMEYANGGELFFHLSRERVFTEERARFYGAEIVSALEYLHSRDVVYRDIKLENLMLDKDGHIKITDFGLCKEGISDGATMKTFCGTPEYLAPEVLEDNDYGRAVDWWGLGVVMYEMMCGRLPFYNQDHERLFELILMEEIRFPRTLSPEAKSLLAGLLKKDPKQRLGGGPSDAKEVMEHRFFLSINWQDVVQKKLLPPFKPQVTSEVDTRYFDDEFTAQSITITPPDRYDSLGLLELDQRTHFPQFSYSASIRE

CLK2 (human) = CLK2 (human) (UniProt P49760)
MAP3K11 (human) = MAP3K11 (human) (UniProt Q16584)
LYN (human) = LYN (human) (UniProt P07948)
VRK1 (human) = VRK1 (human) (UniProt Q99986)
CDK2 CCNA2 (human) = CDK2 CCNA2 (human) (UniProt P24941+P20248)
CSNK1G3 (human) = CSNK1G3 (human) (UniProt Q9Y6M4)
CSNK1G3 (human), sequence (Q9Y6M4 whole entry, looked up): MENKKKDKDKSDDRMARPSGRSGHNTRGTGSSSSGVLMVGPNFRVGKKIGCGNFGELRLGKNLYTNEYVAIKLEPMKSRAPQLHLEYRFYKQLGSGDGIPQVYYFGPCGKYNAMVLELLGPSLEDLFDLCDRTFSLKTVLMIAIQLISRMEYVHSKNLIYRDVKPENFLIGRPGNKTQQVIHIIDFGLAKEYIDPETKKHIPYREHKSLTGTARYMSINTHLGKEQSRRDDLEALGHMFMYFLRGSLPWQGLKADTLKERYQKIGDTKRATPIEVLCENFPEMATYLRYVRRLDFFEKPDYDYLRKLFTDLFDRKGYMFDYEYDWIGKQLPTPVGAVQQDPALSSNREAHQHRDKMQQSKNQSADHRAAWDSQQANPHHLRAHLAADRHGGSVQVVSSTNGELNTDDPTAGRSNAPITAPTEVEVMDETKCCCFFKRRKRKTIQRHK

MKNK2 (human) = MKNK2 (human) (UniProt Q9HBH9)
CSNK2A2 (human) = CSNK2A2 (human) (UniProt P19784)
PAK4 (human) = PAK4 (human) (UniProt O96013)
ERBB2 (human) = ERBB2 (human) (UniProt P04626)
CDK1 CCNA2 (human) = CDK1 CCNA2 (human) (UniProt P06493+P20248)
NUAK1 (human) = NUAK1 (human) (UniProt O60285)
MAPKAPK2 (human) = MAPKAPK2 (human) (UniProt P49137)
MAPKAPK2 (human), sequence (P49137 whole entry, looked up): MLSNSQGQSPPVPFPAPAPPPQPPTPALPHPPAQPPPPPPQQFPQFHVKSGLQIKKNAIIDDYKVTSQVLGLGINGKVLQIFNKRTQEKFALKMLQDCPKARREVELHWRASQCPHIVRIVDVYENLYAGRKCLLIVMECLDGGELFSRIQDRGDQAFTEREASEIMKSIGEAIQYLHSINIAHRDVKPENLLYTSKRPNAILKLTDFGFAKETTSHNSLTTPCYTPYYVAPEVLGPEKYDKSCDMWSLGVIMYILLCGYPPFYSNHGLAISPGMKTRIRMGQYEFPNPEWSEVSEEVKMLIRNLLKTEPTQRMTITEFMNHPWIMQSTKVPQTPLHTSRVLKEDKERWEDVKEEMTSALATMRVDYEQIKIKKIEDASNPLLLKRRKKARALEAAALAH

SRC (human), sequence (P12931 whole entry, looked up): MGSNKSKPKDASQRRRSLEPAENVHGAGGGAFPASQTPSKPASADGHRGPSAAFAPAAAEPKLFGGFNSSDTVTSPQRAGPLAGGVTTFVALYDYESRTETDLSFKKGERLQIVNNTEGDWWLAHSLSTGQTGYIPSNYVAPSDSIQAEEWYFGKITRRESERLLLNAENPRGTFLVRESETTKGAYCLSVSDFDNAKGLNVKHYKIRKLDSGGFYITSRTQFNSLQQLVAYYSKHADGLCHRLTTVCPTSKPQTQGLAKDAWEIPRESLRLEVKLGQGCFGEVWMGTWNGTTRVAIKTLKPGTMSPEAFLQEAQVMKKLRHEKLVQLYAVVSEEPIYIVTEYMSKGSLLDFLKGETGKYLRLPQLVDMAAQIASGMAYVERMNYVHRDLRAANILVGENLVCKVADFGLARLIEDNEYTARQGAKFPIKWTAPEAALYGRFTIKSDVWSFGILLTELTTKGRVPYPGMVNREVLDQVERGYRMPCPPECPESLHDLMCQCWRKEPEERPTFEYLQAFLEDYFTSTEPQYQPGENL

Structure (SMILES): CCN(CC)CCCCN1c2ccccc2Oc2ccc(Cl)cc21
- residual activity (MELK (human)): 95.3%
- residual activity (SRC (human)): 106%
- residual activity (MUSK (human)): 103%
- residual activity (NTRK3 (human)): 103%
- residual activity (CSK (human)): 99.1%
- residual activity (DSTYK (human)): 106%
- residual activity (HCK (human)): 105%
- residual activity (TSSK2 (human)): 103%
- residual activity (HIPK3 (human)): 94.2%
- residual activity (RPS6KA2 KD1 KD2 (human)): 88%
- residual activity (LCK (human)): 94.6%
- residual activity (DYRK3 (human)): 99%
- residual activity (DMPK (human)): 99.2%
- residual activity (TSSK1B (human)): 96.7%
- residual activity (EPHA3 (human)): 101%
- residual activity (ROCK1 (human)): 92.6%
- residual activity (BRSK2 (human)): 107%
- residual activity (TBK1 (human)): 86.3%
- residual activity (MAPKAPK3 (human)): 105%
- residual activity (PASK (human)): 76.6%
- residual activity (NEK3 (human)): 103%
- residual activity (NEK7 (human)): 89.7%
- residual activity (PRKCB2 (human)): 102%
- residual activity (PLK2 (human)): 103%
- residual activity (PAK3 (human)): 116%
- residual activity (MINK1 (human)): 111%
- residual activity (IKBKE (human)): 102%
- residual activity (INSR (human)): 109%
- residual activity (AKT2 (human)): 101%
- residual activity (CLK2 (human)): 105%
- residual activity (MAP3K11 (human)): 99.9%
- residual activity (LYN (human)): 105% and 115%
- residual activity (VRK1 (human)): 101%
- residual activity (CDK2 CCNA2 (human)): 98.7%
- residual activity (CSNK1G3 (human)): 78.3%
- residual activity (MKNK2 (human)): 111%
- residual activity (CSNK2A2 (human)): 94.6%
- residual activity (PAK4 (human)): 104%
- residual activity (ERBB2 (human)): 96.6%
- residual activity (CDK1 CCNA2 (human)): 99.3%
- residual activity (NUAK1 (human)): 90.7%
- residual activity (MAPKAPK2 (human)): 97.2%

- residual activity (MELK (human)): 33.3%
- residual activity (SRC (human)): 65.1%
- residual activity (MUSK (human)): 71.2%
- residual activity (NTRK3 (human)): 2.17%
- residual activity (CSK (human)): 93%
- residual activity (DSTYK (human)): 108%
- residual activity (HCK (human)): 60.2%
- residual activity (TSSK2 (human)): 97.7%
- residual activity (HIPK3 (human)): 89.2%
- residual activity (RPS6KA2 KD1 KD2 (human)): 42.6%
- residual activity (LCK (human)): 77.1%
- residual activity (DYRK3 (human)): 106%
- residual activity (DMPK (human)): 101%
- residual activity (TSSK1B (human)): 86%
- residual activity (EPHA3 (human)): 92%
- residual activity (ROCK1 (human)): 101%
- residual activity (BRSK2 (human)): 28%
- residual activity (TBK1 (human)): 53.6%
- residual activity (MAPKAPK3 (human)): 103%
- residual activity (PASK (human)): 94.1%
- residual activity (NEK3 (human)): 102%
- residual activity (NEK7 (human)): 106%
- residual activity (PRKCB2 (human)): 101%
- residual activity (PLK2 (human)): 106%
- residual activity (PAK3 (human)): 92.6%
- residual activity (MINK1 (human)): 50.2%
- residual activity (IKBKE (human)): 75.1%
- residual activity (INSR (human)): 66.8%
- residual activity (AKT2 (human)): 92%
- residual activity (CLK2 (human)): 92.5%
- residual activity (MAP3K11 (human)): 17.3%
- residual activity (LYN (human)): 64.6% and 79.6%
- residual activity (VRK1 (human)): 86.3%
- residual activity (CDK2 CCNA2 (human)): 29.6%
- residual activity (CSNK1G3 (human)): 81.9%
- residual activity (MKNK2 (human)): 82.1%
- residual activity (CSNK2A2 (human)): 75%
- residual activity (PAK4 (human)): 77.1%
- residual activity (ERBB2 (human)): 97.9%
- residual activity (CDK1 CCNA2 (human)): 88.4%
- residual activity (NUAK1 (human)): 8.89%
- residual activity (MAPKAPK2 (human)): 105%
Structure (SMILES): O=C1Nc2ccccc2/C1=C1\Nc2ccccc2\C1=N/O

- residual activity (MELK (human)): 13.1%
- residual activity (SRC (human)): 22.6%
- residual activity (MUSK (human)): 58%
- residual activity (NTRK3 (human)): 1.01%
- residual activity (CSK (human)): 86.3%
- residual activity (DSTYK (human)): 104%
- residual activity (HCK (human)): 23%
- residual activity (TSSK2 (human)): 96.2%
- residual activity (HIPK3 (human)): 66.2%
- residual activity (RPS6KA2 KD1 KD2 (human)): 12.1%
- residual activity (LCK (human)): 29.7%
- residual activity (DYRK3 (human)): 105%
- residual activity (DMPK (human)): 99.5%
- residual activity (TSSK1B (human)): 76.6%
- residual activity (EPHA3 (human)): 69%
- residual activity (ROCK1 (human)): 101%
- residual activity (BRSK2 (human)): 33.3%
- residual activity (TBK1 (human)): 29.9%
- residual activity (MAPKAPK3 (human)): 98.9%
- residual activity (PASK (human)): 89.8%
- residual activity (NEK3 (human)): 102%
- residual activity (NEK7 (human)): 98.9%
- residual activity (PRKCB2 (human)): 88%
- residual activity (PLK2 (human)): 105%
- residual activity (PAK3 (human)): 73.8%
- residual activity (MINK1 (human)): 21%
- residual activity (IKBKE (human)): 45.7%
- residual activity (INSR (human)): 44.9%
- residual activity (AKT2 (human)): 90.1%
- residual activity (CLK2 (human)): 92%
- residual activity (MAP3K11 (human)): 10.5%
- residual activity (LYN (human)): 25.4% and 45.5%
- residual activity (VRK1 (human)): 88.3%
- residual activity (CDK2 CCNA2 (human)): 15.5%
- residual activity (CSNK1G3 (human)): 90.7%
- residual activity (MKNK2 (human)): 72.4%
- residual activity (CSNK2A2 (human)): 28.3%
- residual activity (PAK4 (human)): 84.5%
- residual activity (ERBB2 (human)): 95.3%
- residual activity (CDK1 CCNA2 (human)): 56.7%
- residual activity (NUAK1 (human)): 2.81%
- residual activity (MAPKAPK2 (human)): 98.4%
Structure (SMILES): O=C1Nc2ccccc2/C1=C1/Nc2ccccc2/C1=N\OCCC(O)CO (stereo unspecified)
